# Test results as given in patent publication US20080014186A1, “Hla-A24 or Hla-A2 Binding Peptides of Parathyroid Hormone-Related Protein” (GREEN PEPTIDE CO., LTD., priority 2004, published 2008).
# Legend:
# [1] = system: IgG in plasma of HLA-A2^+ healthy donors and prostate cancer patients; test: Peptide-specific IgG in plasma by ELISA (HLA-A2-binding PTHrP peptides); design: species or system human; conditions: for IgG reactive to the peptide in plasma (difference of OD): 1:100-diluted plasma
# Description: Peptide-specific IgG levels in the plasma were measured by ELISA, as previously reported. In brief, peptide (20 μg/well)-immobilized plates were blocked with Block Ace (Yukijirushi, Tokyo, Japan) and washed with 0.05% Tween20-PBS, after which 100 μl/well of plasma sample diluted with 0.05% Tween20-Block Ace was added to the plate. After 2 hours incubation at 37° C., the plates were washed and further incubated for 2 hours with a 1:1000-diluted rabbit anti-human IgG (γ-chain-specific) (DAKO, Glostrup, Denmark). The plates were washed, and then 100 μl of 1:100-diluted goat anti-rabbit IgG-conjugated horseradish peroxidase (EnVision, DAKO) was added to each well, and the plates were then incubated at room temperature for 40 min. After the plates were washed once, 100 μl/well of tetramethyl benzidine substrate solution (KPL, Guildford, UK) was added, and the reaction was stopped by the addition of 1 M phosphoric acid. The values are shown as optical density (OD) units/ml, and responses to the HIV peptide were subtracted. IgG reactive to a corresponding PTHrP peptide was judged to be positive when the difference of the OD in 1:100-diluted plasma exceeded 0.05. The results that IgG reactive to either the PTHrP102-111 or the […] peptide was detected in 8 of 10 healthy donors and in 7 of 10 prostate cancers are shown in Table 2 hereinafter.
# In a similar way to Example 3, it was examined whether IgGs reactive to peptides of PTHrP 42-51 and PTHrP 59-67 could be detected in the plasma of 10 healthy donors and 10 cancer patients. The cut-off value at 1:100-diluted plasma was ODO.054.
# [2] = system: PBMCs of HLA-A2^+ healthy donors and prostate cancer patients; test: Assay for peptide-specific CTLs in PBMCs (IFN-γ ELISA, peptide-pulsed T2 cells); assay type: cell-based, human; conditions: for INF-γ production: T2 cells
# [3] = HLA-A2^+ prostate cancer patients
sequence,measurement,setting,value
"FLHHLIAEIH [PTHrP 59-68, previously reported PTHrP peptide generating CTLs from HLA-A*0201 healthy donors [17], reference compound]",IgG reactive to the peptide in plasma (difference of OD),[1]; HLA-A2^+ healthy donor #1,0.0855 OD
same,IgG reactive to the peptide in plasma (difference of OD),[1]; HLA-A2^+ healthy donor #2,— (IgG reactive to a corresponding peptide was judged to be positive when a difference of OD in a 1:100-diluted plasma was more than 0.054.)
same,IgG reactive to the peptide in plasma (difference of OD),[1]; HLA-A2^+ healthy donor #3,— (IgG reactive to a corresponding peptide was judged to be positive when a difference of OD in a 1:100-diluted plasma was more than 0.054.)
same,IgG reactive to the peptide in plasma (difference of OD),[1]; HLA-A2^+ healthy donor #4,— (IgG reactive to a corresponding peptide was judged to be positive when a difference of OD in a 1:100-diluted plasma was more than 0.054.)
same,IgG reactive to the peptide in plasma (difference of OD),[1]; HLA-A2^+ healthy donor #5,— (IgG reactive to a corresponding peptide was judged to be positive when a difference of OD in a 1:100-diluted plasma was more than 0.054.)
same,IgG reactive to the peptide in plasma (difference of OD),[1]; HLA-A2^+ healthy donor #6,— (IgG reactive to a corresponding peptide was judged to be positive when a difference of OD in a 1:100-diluted plasma was more than 0.054.)
same,IgG reactive to the peptide in plasma (difference of OD),[1]; HLA-A2^+ healthy donor #7,0.119 OD
same,IgG reactive to the peptide in plasma (difference of OD),[1]; HLA-A2^+ healthy donor #8,0.167 OD
same,IgG reactive to the peptide in plasma (difference of OD),[1]; HLA-A2^+ healthy donor #9,0.065 OD
same,IgG reactive to the peptide in plasma (difference of OD),[1]; HLA-A2^+ healthy donor #10,0.112 OD
same,Total (IgG-positive donors / donors tested),[1]; HLA-A2^+ healthy donors,5/10
same,IgG reactive to the peptide in plasma (difference of OD),[1]; HLA-A2^+ prostate cancer patient #1,— (IgG reactive to a corresponding peptide was judged to be positive when a difference of OD in a 1:100-diluted plasma was more than 0.054.)
same,IgG reactive to the peptide in plasma (difference of OD),[1]; HLA-A2^+ prostate cancer patient #2,— (IgG reactive to a corresponding peptide was judged to be positive when a difference of OD in a 1:100-diluted plasma was more than 0.054.)
same,IgG reactive to the peptide in plasma (difference of OD),[1]; HLA-A2^+ prostate cancer patient #3,0.0795 OD
same,IgG reactive to the peptide in plasma (difference of OD),[1]; HLA-A2^+ prostate cancer patient #4,— (IgG reactive to a corresponding peptide was judged to be positive when a difference of OD in a 1:100-diluted plasma was more than 0.054.)
same,IgG reactive to the peptide in plasma (difference of OD),[1]; HLA-A2^+ prostate cancer patient #5,— (IgG reactive to a corresponding peptide was judged to be positive when a difference of OD in a 1:100-diluted plasma was more than 0.054.)
same,IgG reactive to the peptide in plasma (difference of OD),[1]; HLA-A2^+ prostate cancer patient #6,— (IgG reactive to a corresponding peptide was judged to be positive when a difference of OD in a 1:100-diluted plasma was more than 0.054.)
same,IgG reactive to the peptide in plasma (difference of OD),[1]; HLA-A2^+ prostate cancer patient #7,— (IgG reactive to a corresponding peptide was judged to be positive when a difference of OD in a 1:100-diluted plasma was more than 0.054.)
same,IgG reactive to the peptide in plasma (difference of OD),[1]; HLA-A2^+ prostate cancer patient #8,— (IgG reactive to a corresponding peptide was judged to be positive when a difference of OD in a 1:100-diluted plasma was more than 0.054.)
same,IgG reactive to the peptide in plasma (difference of OD),[1]; HLA-A2^+ prostate cancer patient #9,— (IgG reactive to a corresponding peptide was judged to be positive when a difference of OD in a 1:100-diluted plasma was more than 0.054.)
same,IgG reactive to the peptide in plasma (difference of OD),[1]; HLA-A2^+ prostate cancer patient #10,0.1305 OD
same,Total (IgG-positive patients / patients tested),[1]; [3],2/10
same,INF-γ production,[2]; HLA-A2^+ healthy donor #1 (A0201),23 pg/mL
same,INF-γ production,[2]; HLA-A2^+ healthy donor #2 (A0201),51 pg/mL
same,INF-γ production,[2]; HLA-A2^+ healthy donor #3 (A0201),0 pg/mL
same,INF-γ production,[2]; HLA-A2^+ healthy donor #4 (A0201),0 pg/mL
same,INF-γ production,[2]; HLA-A2^+ healthy donor #5 (A0206),0 pg/mL
same,INF-γ production,[2]; HLA-A2^+ healthy donor #6 (A0206),46 pg/mL
same,INF-γ production,[2]; HLA-A2^+ healthy donor #7 (A0206),0 pg/mL
same,INF-γ production,[2]; HLA-A2^+ healthy donor #8 (A0206),0 pg/mL
same,INF-γ production,[2]; HLA-A2^+ healthy donor #9 (A0206),0 pg/mL
same,INF-γ production,[2]; HLA-A2^+ healthy donor #10 (A0207),0 pg/mL
same,"induced peptide-specific CTLs, number of donors",[2]; HLA-A2^+ healthy donors,no peptide-specific CTLs were induced
same,Total (donors with significant peptide-specific IFN-γ production / donors tested),"[2]; HLA-A2^+ healthy donors, p < 0.05",0/10
same,INF-γ production,[2]; HLA-A2^+ prostate cancer patient #1 (A0206),31 pg/mL
same,INF-γ production,[2]; HLA-A2^+ prostate cancer patient #2 (A0210),0 pg/mL
same,INF-γ production,[2]; HLA-A2^+ prostate cancer patient #3 (A0210),48 pg/mL
same,INF-γ production,[2]; HLA-A2^+ prostate cancer patient #4 (A0206),138 pg/mL
same,INF-γ production,[2]; HLA-A2^+ prostate cancer patient #5 (A0206),154 pg/mL
same,INF-γ production,[2]; HLA-A2^+ prostate cancer patient #6 (A0207),0 pg/mL
same,INF-γ production,[2]; HLA-A2^+ prostate cancer patient #7 (A0206),222 pg/mL
same,INF-γ production,[2]; HLA-A2^+ prostate cancer patient #8 (A0206),146 pg/mL
same,INF-γ production,[2]; HLA-A2^+ prostate cancer patient #9 (A0201),43 pg/mL
same,INF-γ production,[2]; HLA-A2^+ prostate cancer patient #10 (A0201),112 pg/mL
same,"induced peptide-specific CTLs (peptide-specific IFN-γ production), number of patients",[2]; [3],5 of 10
same,Total (patients with significant peptide-specific IFN-γ production / patients tested),"[2]; HLA-A2^+ prostate cancer patients, p < 0.05",5/10
